{"source": "paper PMC11173382", "about": "“In Vitro Investigations into the Potential Drug Interactions of Pseudoginsenoside DQ Mediated by Cytochrome P450 and Human Drug Transporters” (Molecules, 2024)", "assay_type_in_all_cases": "in vitro ADME", "key": {"CYP1A2": {"biological_target": "T1, CYP1A2 (Homo sapiens, UniProt P05177)", "T1 construct": "tissue Corning 452117; host or cells: human liver microsomes", "T1 sequence (P05177 1-516)": "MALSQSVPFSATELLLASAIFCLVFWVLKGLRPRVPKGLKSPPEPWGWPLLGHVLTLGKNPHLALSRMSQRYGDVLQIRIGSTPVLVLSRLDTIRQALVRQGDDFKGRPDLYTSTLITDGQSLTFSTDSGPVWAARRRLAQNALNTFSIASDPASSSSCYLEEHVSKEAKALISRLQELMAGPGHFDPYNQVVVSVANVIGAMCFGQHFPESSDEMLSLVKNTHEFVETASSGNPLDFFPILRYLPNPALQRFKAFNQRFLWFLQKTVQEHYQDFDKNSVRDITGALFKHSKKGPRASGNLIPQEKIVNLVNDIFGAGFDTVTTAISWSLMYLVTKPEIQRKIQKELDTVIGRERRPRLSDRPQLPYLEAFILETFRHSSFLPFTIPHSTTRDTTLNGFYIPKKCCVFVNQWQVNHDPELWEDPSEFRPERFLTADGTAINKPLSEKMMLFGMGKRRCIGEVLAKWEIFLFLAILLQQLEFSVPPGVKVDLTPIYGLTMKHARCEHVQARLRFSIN", "assay": "CYP450 inhibition assay in human liver microsomes, CYP1A2", "method": "(§1) To evaluate the reliability and reproducibility of the CYP450 inhibition assay, we measured the inhibitory effects of selected positive control inhibitors of each CYP450 enzyme in human liver microsomes (HLM, Table 1, Figure 2). The potency of inhibition was estimated by observing the alteration in concentration of metabolites of CYP450 substrates (Table 1).\n(§2) Reagents preparation. […] The stock solution of PDQ (10 mM) was prepared with methanol and further diluted to the range of 3 µM to 3 mM with methanol to ensure that the solvent of different PDQ samples contained the same amount (1%) of methanol.\n(§3) The stock solutions of the positive control inhibitors and the probe substrates of CYP450 enzymes were prepared in methanol.\n(§4) CYP450 inhibition assay. […] The assay was conducted in polypropylene 96-well plates (2.2 mL/well, Apricot Designs Inc., Covina, CA, USA).\nThe total volume of the reaction is 200 μL. The HLM mixtures (102 μL) containing individual probe substrates (Table 3), KH2PO4 buffer (100 mM, pH 7.4), and either PDQ or the positive control inhibitors (Table 3) were incubated for 10 min at 37 °C in a shaking incubator. Reactions were initiated by adding 98 μL NADPH (final concentration is 1.3 mM NADPH, 3 mM MgCl2 in 100 mM KH2PO4 buffer). The HLM reaction mixtures were shaken at 37 °C for various times (Table 4). The reaction time of CYP3A4 (midazolam), CYP2C19 and CYP2D6 were 3, 20 and 20 min, respectively, while the reactions of other CYP enzymes were terminated after 10 min. The reactions were quenched by adding 200 μL acetonitrile containing 3% formic acid and specific internal standards (Table 4). After shaking at 1000 rpm for 10 min, the reaction mixtures were centrifuged at 4000 rpm for 20 min. Supernatants were diluted with ultrapure water (Table 4) and shaken for 10 min at 1000 rpm. […] The substrates and analytes were analyzed by LC-MS/MS (API4000, Applied Biosystems, Singapore; HPLC, Shimadzu, Japan). […]\n(§5) Data analysis. […] The IC50 was determined by fitting the dependence of the relative remaining activity (y = Vi/V0) to the following three-parameter equation (Equation (1)). […]"}, "CYP2B6": {"biological_target": "T2, CYP2B6 (Homo sapiens, UniProt P20813)", "T2 construct": "tissue Corning 452117; host or cells: human liver microsomes", "T2 sequence (P20813 1-491)": "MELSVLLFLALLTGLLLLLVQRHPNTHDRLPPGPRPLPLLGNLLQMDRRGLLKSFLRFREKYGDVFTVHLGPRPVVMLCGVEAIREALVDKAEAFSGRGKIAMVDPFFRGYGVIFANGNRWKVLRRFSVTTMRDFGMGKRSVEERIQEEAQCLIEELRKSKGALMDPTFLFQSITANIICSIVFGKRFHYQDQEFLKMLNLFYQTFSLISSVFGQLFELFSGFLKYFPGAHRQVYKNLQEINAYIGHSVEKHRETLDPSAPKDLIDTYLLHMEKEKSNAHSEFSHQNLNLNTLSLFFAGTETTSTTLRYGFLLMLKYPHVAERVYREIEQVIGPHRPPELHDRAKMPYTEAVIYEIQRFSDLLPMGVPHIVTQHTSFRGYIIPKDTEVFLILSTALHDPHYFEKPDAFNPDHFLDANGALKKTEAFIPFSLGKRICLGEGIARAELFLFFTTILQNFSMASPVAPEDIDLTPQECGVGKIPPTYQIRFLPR", "assay": "CYP450 inhibition assay in human liver microsomes, CYP2B6", "details": "HLM 0.1 mg/mL; probe bupropion 80 µM; 10 min", "method": "as §1, §2, §3, §4\n(§6) The total volume of the reaction is 200 μL. […] The substrates and analytes were analyzed by LC-MS/MS (API4000, Applied Biosystems, Singapore; HPLC, Shimadzu, Japan). […]\nas §5"}, "CYP2C9": {"biological_target": "T3, CYP2C9 (Homo sapiens, UniProt P11712)", "T3 construct": "tissue Corning 452117; host or cells: human liver microsomes", "T3 sequence (P11712 whole entry)": "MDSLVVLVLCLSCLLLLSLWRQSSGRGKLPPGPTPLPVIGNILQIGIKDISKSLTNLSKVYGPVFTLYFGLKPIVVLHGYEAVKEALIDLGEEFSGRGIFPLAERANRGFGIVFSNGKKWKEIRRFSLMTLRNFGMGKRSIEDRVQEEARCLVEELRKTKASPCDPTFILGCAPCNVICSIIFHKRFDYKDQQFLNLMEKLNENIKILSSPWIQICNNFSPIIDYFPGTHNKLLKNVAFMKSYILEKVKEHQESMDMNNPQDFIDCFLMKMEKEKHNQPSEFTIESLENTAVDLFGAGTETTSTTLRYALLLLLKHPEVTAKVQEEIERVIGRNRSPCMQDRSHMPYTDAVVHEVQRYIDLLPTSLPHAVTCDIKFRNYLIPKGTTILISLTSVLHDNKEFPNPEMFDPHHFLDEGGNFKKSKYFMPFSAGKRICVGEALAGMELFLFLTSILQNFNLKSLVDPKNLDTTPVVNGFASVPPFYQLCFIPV", "assay": "CYP450 inhibition assay in human liver microsomes, CYP2C9", "details": "HLM 0.1 mg/mL; probe diclofenac 10 µM; 10 min", "method": "as §1, §2, §3, §4, §6, §5"}}}
{"smiles": "CC(C)(O)[C@@H]1CC[C@@](C)([C@H]2CC[C@]3(C)[C@@H]2[C@H](O)C[C@@H]2[C@@]4(C)CC[C@H](O)C(C)(C)[C@@H]4CC[C@]23C)O1", "note": "[PDQ, (20S,24S)-dammar-20,24-epoxy-3β, 12β, 25-triol]", "values": [{"measurement": "IC50", "setting": "CYP1A2; HLM 0.1 mg/mL, probe phenacetin 75 µM, 10 min", "result": "> 100", "unit": "µM"}, {"measurement": "effect on CYP1A2-catalyzed de-ethylation", "setting": "CYP1A2; PDQ within the range of 0.03 to 30.0 μM, HLM", "result": "activated"}, {"measurement": "percentage mean control activity of CYP1A2", "setting": "CYP1A2; highest tested dose of PDQ (100 μM), HLM", "result": 100.8, "unit": "%"}, {"measurement": "IC50", "setting": "CYP2B6", "result": 45.3, "unit": "µM"}, {"measurement": "IC50", "setting": "CYP2C9", "result": 11.7, "unit": "µM"}]}
